Assay results: ChEMBL document CHEMBL4811284, “Tellurides bearing benzensulfonamide as carbonic anhydrase inhibitors with potent antitumor activity” (Bioorg Med Chem Lett, 2021)

Key:
Carbonic anhydrase 9 = Carbonic anhydrase 9 (Homo sapiens, UniProt Q16790); assay: Inhibition of recombinant human CA9 preincubated for 15 mins by measured for 10 to 100 secs by phenol red dye based stopped flow CO2 hydration assay
MDA-MB-231 [1] = assay: Cytotoxicity against human MDA-MB-231 cells assessed as cell viability under hypoxia conditions at 1 uM measured after 48 hrs relative to control; type: functional
MDA-MB-231 [2] = assay: Cytotoxicity against human MDA-MB-231 cells assessed as cell killing at 1 uM measured under normoxic condition after 48 hrs relative to control; type: functional
MDA-MB-231 [3] = assay: Cytotoxicity against human MDA-MB-231 cells assessed as cell viability at 10 uM measured under normoxic condition after 48 hrs relative to control; type: functional; details: read-out: Activity
MDA-MB-231 [4] = assay: Cytotoxicity against human MDA-MB-231 cells assessed as cell viability under hypoxia conditions at 10 uM measured after 48 hrs relative to control; type: functional
MDA-MB-231 [5] = assay: Cytotoxicity against human MDA-MB-231 cells assessed as cell viability at 1 uM measured under normoxic condition after 48 hrs relative to control; type: functional; details: read-out: Activity
MDA-MB-231 [6] = assay: Cytotoxicity against human MDA-MB-231 cells assessed as cell killing under hypoxia conditions at 10 uM measured after 48 hrs relative to control; type: functional
MDA-MB-231 [7] = assay: Cytotoxicity against human MDA-MB-231 cells assessed as cell killing under hypoxia conditions at 1 uM measured after 48 hrs relative to control; type: functional

For NS(=O)(=O)c1ccc(C[Te]c2ccccc2)cc1, the Ki (Carbonic anhydrase 9) was 2.4 nM, the Activity (MDA-MB-231 [1]) was 16% and the Activity (MDA-MB-231 [2]) was 90%. It also gave a viability at 10 µM (MDA-MB-231 [3]) of 5% and an Activity (MDA-MB-231 [4]) of 13%.
Molecule COc1ccc([Te]Cc2ccc(S(N)(=O)=O)cc2)cc1 has a Ki (Carbonic anhydrase 9) of 2.6 nM.
In the case of Cc1cccc(C)c1[Te]Cc1ccc(S(N)(=O)=O)cc1, the Ki (Carbonic anhydrase 9) is reported as 2.5 nM.
In the case of COc1cc([Te]Cc2ccc(S(N)(=O)=O)cc2)cc(OC)c1OC, the Ki (Carbonic anhydrase 9) is reported as 2.4 nM, the viability at 1 µM (MDA-MB-231 [5]) is reported as 18% and the Activity (MDA-MB-231 [6]) is reported as 85%. It also gave a viability at 10 µM (MDA-MB-231 [3]) of 3% and an Activity (MDA-MB-231 [7]) of 65%.
NS(=O)(=O)c1ccc(C[Te]c2ccc3ccccc3c2)cc1 showed a Ki (Carbonic anhydrase 9) of 2.9 nM.
With Cc1ccc([Te]Cc2ccc(S(N)(=O)=O)cc2)cc1 the Ki (Carbonic anhydrase 9) was 2.2 nM.
In the case of Cc1ccccc1[Te]Cc1ccc(S(N)(=O)=O)cc1, the Ki (Carbonic anhydrase 9) is reported as 2.6 nM.
